From patent US6727227B1, “Tetrapetide revealing geroprotective effect, pharmacological substance on its basis, and the method of its application” (Obschestvo S Ogranichennoi Otvetstven-Nostiju “Klinika …, priority 2002, dated 2004)
Residues, ends and D or L forms follow the SMILES beside them.

System: catalase
Experiment: Catalase activity in 14-day old flies of HEM strain
Type: in vivo, Drosophila melanogaster of HEM strain
Details: 0.00001% of culture medium weight
Source text: L-Ala-L-Glu-L-Asp-Gly tetrapeptide (SEQ ID NO: 1) was applied in Drosophila melanogaster larvae of the 2nd age of HEM strain selected for a high ageing rate (20). HEM strain is characterised by the unique dynamics of embryonic mortality, which consists in an increased frequency of early embryonic lethal outcomes from 65% on the 1st day of egg-laying up to 95% on the 4th day, in a reduced average life span (29 days), and in a raised intensity of lipid peroxide oxidation.
L-Ala-L-Glu-L-Asp-Gly tetrapeptide (SEQ ID NO: 1) was added in proportion 0.00001% of the culture medium weight, which was an extremely low dose. The doses described in literature on the influence of various substances on Drosophila melanogaster usually ranged from 0.001 to 0.01%.
Biochemical parameters were studied on 14-day old flies. Among them the activity of catalase activity and the intensity of tissue chemoluminescence were analysed (21, 22, 23). Catalase is the basic enzyme of anti-oxidation defence. […] Luminol-dependent chemoluminescence, induced by hydrogen peroxide, reflects the stage of active oxygen forms in tissues. Thus, a decrease in the chemoluminescence intensity indicates an increase in the organism ability to resist oxidative stress.

C[C@H](N)C(=O)N[C@@H](CCC(=O)O)C(=O)N[C@@H](CC(=O)O)C(=O)NCC(=O)O [L-Ala-L-Glu-L-Asp-Gly tetrapeptide, L-alanyl-L-glutamyl-L-aspartyl-glycine] (H-AEDG-OH)
Catalase activity (females): 98.8 ± 1.62 mmole H2O2/mg of protein per min. | Catalase activity (males): 132.3 ± 3.68 mmole H2O2/mg of protein per min.
